Laboratory results: publication PMC11432330, “Novel Drug-like HsrA Inhibitors Exhibit Potent Narrow-Spectrum Antimicrobial Activities against Helicobacter pylori” (International Journal of Molecular Sciences, 2024)
Values after ≈ are worked out from the molar mass of the structure shown.

Tests used:
[1] = test system: H. pylori ATCC 43504 (MTZ-R); assay: MIC/MBC, broth microdilution; format: cell-based, Helicobacter pylori; details: Helicobacter pylori, ATCC43504, H. pylori ATCC 43504 (MTZ-R); for MBC: read-out: MBC; for MIC: read-out: MIC
Protocol: (§1) The antimicrobial activity of the HsrA inhibitors was evaluated by the determination of the minimal inhibitory concentration (MIC) against four different strains of H. pylori: ATCC 700392 (aka 26695), ATCC 43504 (MTZ-resistant reference strain), ATCC 700684 (CLR-resistant reference strain), and Donostia 2 (LVX-resistant clinical isolate). The MICs were determined by the broth microdilution method, as previously described. Briefly, H. pylori strains were grown in blood agar at 37 °C for 72 h under microaerobic conditions. Fresh inoculums adjusted at OD600 = 0.01 [~10^6 colony forming units (CFU) per mL] in BHI broth supplemented with 4% fetal bovine serum (BHI + FBS) were prepared and immediately exposed to final concentrations between 64 and 0.031 mg/L of each compound of interest. The compound solvent (DMSO) as well as conventional antibiotics (MTZ, CLR, LVX) were included as controls. […] Each experiment was performed twice in triplicate. The MIC and MBC values of the selected compounds against C. jejuni ATCC 33560 were determined by using the same method and culture conditions described for the H. pylori strains.

[2] = test system: H. pylori ATCC 700392 (26695); assay: MIC/MBC, broth microdilution; format: cell-based, Helicobacter pylori; details: Helicobacter pylori, ATCC700392, H. pylori ATCC 700392 (26695); for MBC: read-out: MBC; for MIC: read-out: MIC
Protocol: as §1

[3] = test system: H. pylori ATCC 700684 (CLR-R); assay: MIC/MBC, broth microdilution; format: cell-based, Helicobacter pylori; details: Helicobacter pylori; for MBC: ATCC700684, read-out: MBC; for MIC: ATCC700684, read-out: MIC
Protocol: as §1

[4] = test system: H. pylori Donostia 2 (LVX-R); assay: MIC/MBC, broth microdilution; format: cell-based, Helicobacter pylori; details: Helicobacter pylori, H. pylori Donostia 2 (LVX-R); for MBC: read-out: MBC; for MIC: read-out: MIC
Protocol: as §1

C. jejuni ATCC 33560 = assay: MIC/MBC, broth microdilution; format: cell-based; details: Campylobacter jejuni, ATCC33560, C. jejuni ATCC 33560
Protocol: as §1

E. coli ATCC 25922 = assay: MIC/MBC according to EUCAST guidelines; format: cell-based; details: Escherichia coli, ATCC25922
Protocol: (§2) The antimicrobial activities of the selected compounds against several Gram-negative and Gran-positive representative species of normal human microbiota were determined according to the EUCAST guidelines. Briefly, standardized inoculums (0.5 McFarland) were freshly prepared from overnight Mueller–Hinton agar plates of reference strains E. coli ATCC 25922, K. pneumonia ATCC 700603, E. faecalis ATCC 29212, S. aureus ATCC 29213, S. epidermidis ATCC 12228, and S. agalactiae ATCC 12386. Next, bacterial suspensions adjusted to 5 × 10^5 CFU/mL in Mueller–Hinton broth were exposed to a range of concentrations from 64 to 0.031 mg/L of the selected compounds. DMSO and conventional antibiotics LVX and AMP were included as controls. […] Experiments were performed twice in triplicate.

E. faecalis ATCC 29212 = assay: MIC/MBC according to EUCAST guidelines; format: cell-based; details: Enterococcus faecalis, ATCC29212
Protocol: as §2

S. agalactiae ATCC 12386 = assay: MIC/MBC according to EUCAST guidelines; format: cell-based; details: Streptococcus agalactiae, ATCC12386
Protocol: as §2

S. aureus ATCC 29213 = assay: MIC/MBC according to EUCAST guidelines; format: cell-based; details: Staphylococcus aureus, ATCC29213
Protocol: as §2

[5] = test system: S. epidermidis ATCC 12228; assay: MIC/MBC according to EUCAST guidelines; format: cell-based; details: Staphylococcus epidermidis, ATCC12228
Protocol: as §2

[6] = test system: K. pneumoniae ATCC 700603; assay: MIC/MBC according to EUCAST guidelines; format: cell-based, Klebsiella pneumonia; details: Klebsiella pneumoniae, ATCC700603
Protocol: as §2

H. pylori ATCC 700392 = assay: Checkerboard assay with first-line antibiotics; format: cell-based, Helicobacter pylori
Protocol: Potential synergisms between the selected HsrA inhibitors and first-line antibiotics were evaluated by using checkerboard assays, as previous described. Briefly, the antimicrobials to be tested were twofold serially diluted in BHI + FBS using independent sterile microtiter plates. Then, concentration gradients from two antimicrobials were aseptically mixed at equal volumes in a new microtiter plate, resulting in a matrix of 77 unique combinations of both compounds. Next, freshly prepared inoculum of H. pylori ATCC 700392 adjusted at 2 × 10^6 CFU/mL in BHI+ FBS were added to all wells, and plates were incubated for 72 h at 37 °C under microaerophilic conditions. […] The fractional inhibitory concentration index (FICI) for each antimicrobial combination was calculated as previously described. Values of FICI ≤ 0.5, 0.5 < FICI ≤ 1, 1 < FICI ≤ 4, and FICI > 4 were considered as indicative of synergistic, additive, neutral, or antagonist interactions, respectively.

[7] = in combination with CLR (clarithromycin)
[8] = in combination with LVX (levofloxacin)
[9] = in combination with MTZ (metronidazole)

| Structure (SMILES) | MBC [1] [µg/mL] | MIC [1] [µg/mL] | MBC [2] [µg/mL] | MIC [2] [µg/mL] | MBC [3] [µg/mL] | MIC [3] [µg/mL] | MBC [4] [µg/mL] | MIC [4] [µg/mL] | MBC (C. jejuni ATCC 33560) [µg/mL] | MIC (C. jejuni ATCC 33560) [µg/mL] | MBC (E. coli ATCC 25922) [µg/mL] | MIC (E. coli ATCC 25922) [µg/mL] | MBC (E. faecalis ATCC 29212) [µg/mL] | MIC (E. faecalis ATCC 29212) [µg/mL] | MBC (S. agalactiae ATCC 12386) [µg/mL] | MIC (S. agalactiae ATCC 12386) [µg/mL] | MBC (S. aureus ATCC 29213) [µg/mL] | MIC (S. aureus ATCC 29213) [µg/mL] | MBC [5] [µg/mL] | MIC [5] [µg/mL] | further results |
| --- | --- | --- | --- | --- | --- | --- | --- | --- | --- | --- | --- | --- | --- | --- | --- | --- | --- | --- | --- | --- | --- |
| N#C/C(=C\C=C\c1ccccc1)c1nc2ccccc2[nH]1 [Ligand XII] | 0.5 (≈ 1.84 µM) | 0.5 (≈ 1.84 µM) | 2 (≈ 7.37 µM) | 2 (≈ 7.37 µM) | 0.5 (≈ 1.84 µM) | 0.5 (≈ 1.84 µM) | 1 (≈ 3.69 µM) | 1 (≈ 3.69 µM) | > 64 | 64 (≈ 236 µM) | > 64 | > 64 | > 64 | > 64 | > 64 | > 64 | > 64 | > 64 | > 64 | > 64 | MBC [6]: > 64 µg/mL; MIC [6]: > 64 µg/mL; FICI (H. pylori ATCC 700392; [7]): 0.75; FICantibiotic (H. pylori ATCC 700392; [7]): 0.25; FICinhibitor (H. pylori ATCC 700392; [7]): 0.5; Interaction (H. pylori ATCC 700392; [7]): Additive (additive (FICI > 0.5 to ≤1)); FICI (H. pylori ATCC 700392; [8]): 1; FICantibiotic (H. pylori ATCC 700392; [8]): 0.5; FICinhibitor (H. pylori ATCC 700392; [8]): 0.5; FICI (H. pylori ATCC 700392; [9]): 0.5; FICantibiotic (H. pylori ATCC 700392; [9]): 0.25; FICinhibitor (H. pylori ATCC 700392; [9]): 0.25 |
| CSc1cccc(NC(=S)NCCNc2c([N+](=O)[O-])cc(C(F)(F)F)cc2[N+](=O)[O-])c1 [Ligand IV] | 4 (≈ 8.41 µM) | 2 (≈ 4.21 µM) | 4 (≈ 8.41 µM) | 2 (≈ 4.21 µM) | 4 (≈ 8.41 µM) | 4 (≈ 8.41 µM) | 4 (≈ 8.41 µM) | 4 (≈ 8.41 µM) | > 64 | 64 (≈ 135 µM) | > 64 | > 64 | > 64 | > 64 | > 64 | > 64 | > 64 | > 64 | > 64 | > 64 | MBC [6]: > 64 µg/mL; MIC [6]: > 64 µg/mL; FICI (H. pylori ATCC 700392; [7]): 2; FICantibiotic (H. pylori ATCC 700392; [7]): 1; FICinhibitor (H. pylori ATCC 700392; [7]): 1; FICI (H. pylori ATCC 700392; [8]): 2; FICantibiotic (H. pylori ATCC 700392; [8]): 1; FICinhibitor (H. pylori ATCC 700392; [8]): 1; FICI (H. pylori ATCC 700392; [9]): 2; FICantibiotic (H. pylori ATCC 700392; [9]): 1; FICinhibitor (H. pylori ATCC 700392; [9]): 1 |
| OC1(C(F)(F)F)CC(c2ccc3c(c2)Nc2ccccc2S3)=NN1 (centres unmarked) [Ligand VIII] | 2 (≈ 5.69 µM) | 1 (≈ 2.85 µM) | 2 (≈ 5.69 µM) | 1 (≈ 2.85 µM) | 2 (≈ 5.69 µM) | 1 (≈ 2.85 µM) | 2 (≈ 5.69 µM) | 2 (≈ 5.69 µM) | 32 (≈ 91.1 µM) | 16 (≈ 45.5 µM) | > 64 | > 64 | 64 (≈ 182 µM) | 64 (≈ 182 µM) | 32 (≈ 91.1 µM) | 16 (≈ 45.5 µM) | 32 (≈ 91.1 µM) | 16 (≈ 45.5 µM) | 4 (≈ 11.4 µM) | 4 (≈ 11.4 µM) | MBC [6]: > 64 µg/mL; MIC [6]: > 64 µg/mL; FICI (H. pylori ATCC 700392; [7]): 0.53; FICantibiotic (H. pylori ATCC 700392; [7]): 0.5; FICinhibitor (H. pylori ATCC 700392; [7]): 0.03; FICI (H. pylori ATCC 700392; [8]): 2; FICantibiotic (H. pylori ATCC 700392; [8]): 1; FICinhibitor (H. pylori ATCC 700392; [8]): 1; Interaction (H. pylori ATCC 700392; [8]): Neutral (no interaction or neutral (FICI > 1 to ≤4)); FICI (H. pylori ATCC 700392; [9]): 0.625; FICantibiotic (H. pylori ATCC 700392; [9]): 0.5; FICinhibitor (H. pylori ATCC 700392; [9]): 0.125 |
